Tested on: chronic lymphocytic leukemia (CLL) samples classified by expression subtype (Ec-i, EC-m1, EC-m2, EC-m3, EC-m4, EC-o, EC-u1, EC-u2)
Assay: Ex-vivo drug sensitivity (percent viability) of CLL samples compared between expression subtypes (ECs); for Mean viability in the EC: test concentration or dose not given here; for Mean viability in the other ECs: test concentration or dose not given here
Format: cell-based
Conditions: all ECs other than EC-i
Excerpt: An analysis was completed to determine whether the expression clusters (ECs) can be used to predict the resistance and sensitivity of different chronic lymphocytic leukemias to various drugs. […] The expression subtypes were then used with the drug sensitivity data to compare the percent […] of samples in each expression cluster to the percent viability of samples in all other expression clusters.

Structure (SMILES) | Mean viability in the other ECs
Cn1cnc2c(F)c(Nc3ccc(Br)cc3Cl)c(C(=O)NOCCO)cc21 [selumetinib] | 0.92
COc1cc(Nc2ncc(F)c(Nc3ccc4c(n3)NC(=O)C(C)(C)O4)n2)cc(OC)c1OC [tamatinib] | 1.03

Same assay, conditions: all ECs other than EC-m1

Structure (SMILES) | Mean viability in the other ECs
CC(C)c1cc(C(=O)N2Cc3ccc(CN4CCN(C)CC4)cc3C2)c(O)cc1O [AT13387] | 0.72
CN1CCC(CNc2ccc3ncc(-c4cccc(OC(F)(F)F)c4)n3n2)CC1 [SGI-1776] | 1.03

Same assay, conditions: all ECs other than EC-m3

Structure (SMILES) | Mean viability in the other ECs
CC(C)c1cc(C(=O)N2Cc3ccc(CN4CCN(C)CC4)cc3C2)c(O)cc1O [AT13387] | 0.72
CN(C)C/C=C/C(=O)Nc1cc2c(Nc3ccc(F)c(Cl)c3)ncnc2cc1O[C@H]1CCOC1 [afatinib] | 1.08
Cn1cnc2c(F)c(Nc3ccc(Br)cc3Cl)c(C(=O)NOCCO)cc21 [selumetinib] | 0.93
COc1cc(Nc2ncc(F)c(Nc3ccc4c(n3)NC(=O)C(C)(C)O4)n2)cc(OC)c1OC [tamatinib] | 1.04
C[C@H](Nc1ncnc2[nH]cnc12)c1cc2cccc(Cl)c2c(=O)n1-c1ccccc1 [duvelisib] | 0.88
C=CCn1c(=O)c2cnc(Nc3ccc(N4CCN(C)CC4)cc3)nc2n1-c1cccc(C(C)(C)O)n1 [MK-1775] | 1.00
CC[C@H](Nc1ncnc2nc[nH]c12)c1nc2cccc(F)c2c(=O)n1-c1ccccc1 [idelalisib] | 0.93

Same assay, conditions: all ECs other than EC-m4

Structure (SMILES) | Mean viability in the other ECs
CC(C)c1cc(C(=O)N2Cc3ccc(CN4CCN(C)CC4)cc3C2)c(O)cc1O [AT13387] | 0.70
CN(C)C/C=C/C(=O)Nc1cc2c(Nc3ccc(F)c(Cl)c3)ncnc2cc1O[C@H]1CCOC1 [afatinib] | 1.09
Cn1cnc2c(F)c(Nc3ccc(Br)cc3Cl)c(C(=O)NOCCO)cc21 [selumetinib] | 0.92
COc1cc(Nc2ncc(F)c(Nc3ccc4c(n3)NC(=O)C(C)(C)O4)n2)cc(OC)c1OC [tamatinib] | 1.03
C[C@H](Nc1ncnc2[nH]cnc12)c1cc2cccc(Cl)c2c(=O)n1-c1ccccc1 [duvelisib] | 0.87
CC(C)(C)c1cnc(CSc2cnc(NC(=O)C3CCNCC3)s2)o1 [SNS-032] | 0.73
CC[C@H](Nc1ncnc2nc[nH]c12)c1nc2cccc(F)c2c(=O)n1-c1ccccc1 [idelalisib] | 0.93

Same assay, conditions: all ECs other than EC-u1

Structure (SMILES) | Mean viability in the other ECs
CC(C)c1cc(C(=O)N2Cc3ccc(CN4CCN(C)CC4)cc3C2)c(O)cc1O [AT13387] | 0.75
CN1CCC(CNc2ccc3ncc(-c4cccc(OC(F)(F)F)c4)n3n2)CC1 [SGI-1776] | 1.04
Cn1cnc2c(F)c(Nc3ccc(Br)cc3Cl)c(C(=O)NOCCO)cc21 [selumetinib] | 0.94
COc1cc(Nc2ncc(F)c(Nc3ccc4c(n3)NC(=O)C(C)(C)O4)n2)cc(OC)c1OC [tamatinib] | 1.06
C[C@H](Nc1ncnc2[nH]cnc12)c1cc2cccc(Cl)c2c(=O)n1-c1ccccc1 [duvelisib] | 0.90
C=CCn1c(=O)c2cnc(Nc3ccc(N4CCN(C)CC4)cc3)nc2n1-c1cccc(C(C)(C)O)n1 [MK-1775] | 1.02
CC[C@H](Nc1ncnc2nc[nH]c12)c1nc2cccc(F)c2c(=O)n1-c1ccccc1 [idelalisib] | 0.96

Same assay, conditions: all ECs other than EC-u2

Structure (SMILES) | Mean viability in the other ECs
CC(C)c1cc(C(=O)N2Cc3ccc(CN4CCN(C)CC4)cc3C2)c(O)cc1O [AT13387] | 0.74
Cn1cnc2c(F)c(Nc3ccc(Br)cc3Cl)c(C(=O)NOCCO)cc21 [selumetinib] | 0.94
C[C@H](Nc1ncnc2[nH]cnc12)c1cc2cccc(Cl)c2c(=O)n1-c1ccccc1 [duvelisib] | 0.89
CC[C@H](Nc1ncnc2nc[nH]c12)c1nc2cccc(F)c2c(=O)n1-c1ccccc1 [idelalisib] | 0.95

Same assay, conditions: expression cluster EC-i

Structure (SMILES) | Drug response associated with the EC | Mean viability in the EC
Cl.NC(=O)c1cnc(N[C@@H]2CCCC[C@@H]2N)nc1Nc1cccc(-n2nccn2)c1 [PRT062607 HCl] | Resistant | –
Cn1cnc2c(F)c(Nc3ccc(Br)cc3Cl)c(C(=O)NOCCO)cc21 [selumetinib] | Resistant | 0.97
COc1cc(Nc2ncc(F)c(Nc3ccc4c(n3)NC(=O)C(C)(C)O4)n2)cc(OC)c1OC [tamatinib] | Resistant | 1.07

Same assay, conditions: expression cluster EC-m1

Structure (SMILES) | Drug response associated with the EC | Mean viability in the EC
CC(C)c1cc(C(=O)N2Cc3ccc(CN4CCN(C)CC4)cc3C2)c(O)cc1O [AT13387] | Resistant | 0.82
CN1CCC(CNc2ccc3ncc(-c4cccc(OC(F)(F)F)c4)n3n2)CC1 [SGI-1776] | Resistant | 1.09
Cn1cc(-c2[nH]c3cc(NC(=O)[C@H](N)C4CCCCC4)cc4c3c2C=NNC4=O)cn1 [PF 477736] | Resistant | –

Same assay, conditions: expression cluster EC-m3

Structure (SMILES) | Drug response associated with the EC | Mean viability in the EC
CC(C)c1cc(C(=O)N2Cc3ccc(CN4CCN(C)CC4)cc3C2)c(O)cc1O [AT13387] | Resistant | 0.81
Cl.NC(=O)c1cnc(N[C@@H]2CCCC[C@@H]2N)nc1Nc1cccc(-n2nccn2)c1 [PRT062607 HCl] | Resistant | –
CN(C)C/C=C/C(=O)Nc1cc2c(Nc3ccc(F)c(Cl)c3)ncnc2cc1O[C@H]1CCOC1 [afatinib] | – | 1.03
Cn1cnc2c(F)c(Nc3ccc(Br)cc3Cl)c(C(=O)NOCCO)cc21 [selumetinib] | Resistant | 0.97
COc1cc(Nc2ncc(F)c(Nc3ccc4c(n3)NC(=O)C(C)(C)O4)n2)cc(OC)c1OC [tamatinib] | Resistant | 1.09
C[C@H](Nc1ncnc2[nH]cnc12)c1cc2cccc(Cl)c2c(=O)n1-c1ccccc1 [duvelisib] | Resistant | 0.95
C=CCn1c(=O)c2cnc(Nc3ccc(N4CCN(C)CC4)cc3)nc2n1-c1cccc(C(C)(C)O)n1 [MK-1775] | Resistant | 1.04
CC[C@H](Nc1ncnc2nc[nH]c12)c1nc2cccc(F)c2c(=O)n1-c1ccccc1 [idelalisib] | Resistant | 1.02
Cn1cc(-c2[nH]c3cc(NC(=O)[C@H](N)C4CCCCC4)cc4c3c2C=NNC4=O)cn1 [PF 477736] | Resistant | –

Same assay, conditions: expression cluster EC-m4

Structure (SMILES) | Drug response associated with the EC | Mean viability in the EC
CC(C)c1cc(C(=O)N2Cc3ccc(CN4CCN(C)CC4)cc3C2)c(O)cc1O [AT13387] | Resistant | 0.81
Cl.NC(=O)c1cnc(N[C@@H]2CCCC[C@@H]2N)nc1Nc1cccc(-n2nccn2)c1 [PRT062607 HCl] | Resistant | –
O=c1cc(N2CCOCC2)oc2c(-c3cccc4c3sc3ccccc34)cccc12 [NU7441] | Resistant | –
CN(C)C/C=C/C(=O)Nc1cc2c(Nc3ccc(F)c(Cl)c3)ncnc2cc1O[C@H]1CCOC1 [afatinib] | – | 1.02
Cn1cnc2c(F)c(Nc3ccc(Br)cc3Cl)c(C(=O)NOCCO)cc21 [selumetinib] | Resistant | 0.97
COc1cc(Nc2ncc(F)c(Nc3ccc4c(n3)NC(=O)C(C)(C)O4)n2)cc(OC)c1OC [tamatinib] | Resistant | 1.09
C[C@H](Nc1ncnc2[nH]cnc12)c1cc2cccc(Cl)c2c(=O)n1-c1ccccc1 [duvelisib] | Resistant | 0.94
CC(C)(C)c1cnc(CSc2cnc(NC(=O)C3CCNCC3)s2)o1 [SNS-032] | Sensitive | 0.66
CC[C@H](Nc1ncnc2nc[nH]c12)c1nc2cccc(F)c2c(=O)n1-c1ccccc1 [idelalisib] | Resistant | 0.99
Cn1cc(-c2[nH]c3cc(NC(=O)[C@H](N)C4CCCCC4)cc4c3c2C=NNC4=O)cn1 [PF 477736] | Resistant | –

Same assay, conditions: expression cluster EC-u1

Structure (SMILES) | Drug response associated with the EC | Mean viability in the EC
CC(C)c1cc(C(=O)N2Cc3ccc(CN4CCN(C)CC4)cc3C2)c(O)cc1O [AT13387] | Sensitive | 0.68
CN1CCC(CNc2ccc3ncc(-c4cccc(OC(F)(F)F)c4)n3n2)CC1 [SGI-1776] | Sensitive | 1.01
Cl.NC(=O)c1cnc(N[C@@H]2CCCC[C@@H]2N)nc1Nc1cccc(-n2nccn2)c1 [PRT062607 HCl] | Sensitive | –
Cn1cnc2c(F)c(Nc3ccc(Br)cc3Cl)c(C(=O)NOCCO)cc21 [selumetinib] | Sensitive | 0.91
COc1cc(Nc2ncc(F)c(Nc3ccc4c(n3)NC(=O)C(C)(C)O4)n2)cc(OC)c1OC [tamatinib] | Sensitive | 1.00
C[C@H](Nc1ncnc2[nH]cnc12)c1cc2cccc(Cl)c2c(=O)n1-c1ccccc1 [duvelisib] | Sensitive | 0.85
C=CCn1c(=O)c2cnc(Nc3ccc(N4CCN(C)CC4)cc3)nc2n1-c1cccc(C(C)(C)O)n1 [MK-1775] | Sensitive | 0.98
CC[C@H](Nc1ncnc2nc[nH]c12)c1nc2cccc(F)c2c(=O)n1-c1ccccc1 [idelalisib] | Sensitive | 0.90
Cn1cc(-c2[nH]c3cc(NC(=O)[C@H](N)C4CCCCC4)cc4c3c2C=NNC4=O)cn1 [PF 477736] | Sensitive | –

Same assay, conditions: expression cluster EC-u2

Structure (SMILES) | Drug response associated with the EC | Mean viability in the EC
CC(C)c1cc(C(=O)N2Cc3ccc(CN4CCN(C)CC4)cc3C2)c(O)cc1O [AT13387] | Sensitive | 0.50
Cl.NC(=O)c1cnc(N[C@@H]2CCCC[C@@H]2N)nc1Nc1cccc(-n2nccn2)c1 [PRT062607 HCl] | Sensitive | –
O=c1cc(N2CCOCC2)oc2c(-c3cccc4c3sc3ccccc34)cccc12 [NU7441] | Sensitive | –
Cn1cnc2c(F)c(Nc3ccc(Br)cc3Cl)c(C(=O)NOCCO)cc21 [selumetinib] | Sensitive | 0.79
C[C@H](Nc1ncnc2[nH]cnc12)c1cc2cccc(Cl)c2c(=O)n1-c1ccccc1 [duvelisib] | Sensitive | 0.73
CC[C@H](Nc1ncnc2nc[nH]c12)c1nc2cccc(F)c2c(=O)n1-c1ccccc1 [idelalisib] | Sensitive | 0.79
